Measured values: US11000033B2, “Ketone or oxime compound, and herbicide” (NISSAN CHEMICAL CORPORATION, priority 2014, dated 2021)

Key:
Assay type in all cases: in vivo
[1] = test system: Avena fatua; test: Test Example 5: herbicidal effect by foliage application, plastic box (symbol I); settings: 320 g/ha, 3 weeks after application
Method in brief: (§1)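 Sowing in sterilized diluvial soil, 14 days' greenhouse growth at 25° C. to 30° C., then uniform small-sprayer foliar application of aqueous emulsion dilution; plants scored three weeks afterwards.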

[2] = test system: wheat; test: Test Example 4: effect on crop by soil treatment (symbol e); settings: for e: wheat, effect grade on crop: 320 g/ha
Method in brief: (§2)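 Greenhouse culture at 25° C. to 30° C. followed sowing of seed in spots on sterilized diluvial soil with a soil cover close to 1.5 cm thick.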

[3] = test system: Alopecurus myosuroides; test: Test Example 5: herbicidal effect by foliage application, plastic box (symbol J); settings: 320 g/ha, 3 weeks after application
Method in brief: as §1

[4] = test system: Chenopodium album; test: Test Example 5: herbicidal effect by foliage application, plastic box (symbol O); settings: 320 g/ha, 3 weeks after application
Method in brief: as §1

[5] = test system: rapeseed; test: Test Example 4: effect on crop by soil treatment (symbol g); settings: for g: rapeseed, effect grade on crop: 320 g/ha
Method in brief: as §2

[6] = test system: rice plant; test: Test Example 5: effect on crop by foliage application, plastic box (symbol b); settings: 320 g/ha, 3 weeks after application
Method in brief: (§3)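 Sterilized diluvial soil, plastic box (21 × 13 × 7 cm); spot sowing, ~1.5 cm soil cover; greenhouse 25–30° C.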

[7] = test system: soybean; test: Test Example 4: effect on crop by soil treatment (symbol d); settings: for d: soybean, effect grade on crop: 320 g/ha
Method in brief: as §2

[8] = test system: Stellaria media; test: Test Example 4: herbicidal effect by soil treatment (symbol P); settings: for P: Stellaria media, herbicidal effect grade: 320 g/ha
Method in brief: (§4)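 Seeds were sown in sterilized diluvial soil, covered with about 1.5 cm of soil, and the soil surface was sprayed with a water-diluted emulsion of the compound at a predetermined rate. Plants grew in a greenhouse at 25° C. to 30° C.; effects were scored visually 3 weeks after application.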

[9] = test system: directly sowed rice plant; test: Test Example 3: effect on crop by foliage application, Wagner pot (symbol b); settings: application herbicide amount 320 g/ha
Method in brief: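 Steps: fill a 1/10000-are Wagner pot with alluvial soil; add water and mix to submerge at 0.1–0.5 cm depth; sow rice plus Echinochloa crus-galli var. crus-galli, Leptochloa chinensis and Cyperus difformis; grow in a 25–30 °C greenhouse.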

[10] = test system: Setaria viridis; test: Test Example 4: herbicidal effect by soil treatment (symbol G); settings: for G: Setaria viridis, herbicidal effect grade: 320 g/ha
Method in brief: as §4

[11] = test system: Stellaria media; test: Test Example 5: herbicidal effect by foliage application, plastic box (symbol P); settings: 320 g/ha, 3 weeks after application
Method in brief: as §1

[12] = test system: Apera spica-venti; test: Test Example 4: herbicidal effect by soil treatment (symbol L); settings: for L: Apera spica-venti, herbicidal effect grade: 320 g/ha
Method in brief: as §4

[13] = test system: Echinochloa crus-galli var. crus-galli; test: Test Example 3: herbicidal effect by foliage application, Wagner pot (symbol H); settings: application herbicide amount 320 g/ha
Method in brief: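 Foliar spray of water-diluted emulsion formulation at a predetermined herbicide amount onto 14-day-old plants in flooded alluvial soil (water depth 0.1–0.5 cm), greenhouse 25–30 °C; rice sown alongside. Scored 3 wk post-application on set criteria.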

[14] = test system: Lolium multiflorum Lam.; test: Test Example 5: herbicidal effect by foliage application, plastic box (symbol K); settings: 320 g/ha, 3 weeks after application
Method in brief: as §1

[15] = test system: Digitaria ciliaris; test: Test Example 5: herbicidal effect by foliage application, plastic box (symbol F); settings: 320 g/ha, 3 weeks after application
Method in brief: as §1

[16] = test system: corn; test: Test Example 5: effect on crop by foliage application, plastic box (symbol c); settings: 320 g/ha, 3 weeks after application
Method in brief: as §3

[17] = test system: Apera spica-venti; test: Test Example 5: herbicidal effect by foliage application, plastic box (symbol L); settings: 320 g/ha, 3 weeks after application
Method in brief: as §1

[18] = application herbicide amount 320 g/ha

## CON=C(C)CC1CC(OC(=O)COc2ccc3ccccc3c2)=C(c2c(C)cc(C)cc2C)C1=O (stereo not shown) [1-083]
[1]
  I: Avena fatua, herbicidal effect (criteria 0-5): 5 (Herbicidal ratio of 90% or more (almost completely withered))
[2]
  e: wheat, effect grade on crop: 4 (Herbicidal ratio of 70% or higher and lower than 90%)
[3]
  J: Alopecurus myosuroides, herbicidal effect (criteria 0-5): 5 (Herbicidal ratio of 90% or more (almost completely withered))
[4]
  O: Chenopodium album, herbicidal effect (criteria 0-5): 0 (Herbicidal ratio of 5% or lower (almost no effect))
[5]
  g: rapeseed, effect grade on crop: 4 (Herbicidal ratio of 70% or higher and lower than 90%)
[6]
  b: directly sowed rice plant, effect on crop (criteria 0-5): 5 (Herbicidal ratio of 90% or more (almost completely withered))
[7]
  d: soybean, effect grade on crop: 1 (Herbicidal ratio of 5% or higher and lower than 20%)
[8]
  P: Stellaria media, herbicidal effect grade: 0 (Herbicidal ratio of 5% or lower (almost no effect))
[9]
  effect on crop b (directly sowed rice plant), grade 0-5: 3 (Herbicidal ratio of 40% or higher and lower than 70%)
[10]
  G: Setaria viridis, herbicidal effect grade: 5 (Herbicidal ratio of 90% or more (almost completely withered))
[11]
  P: Stellaria media, herbicidal effect (criteria 0-5): 4 (Herbicidal ratio of 70% or higher and lower than 90%)
[12]
  L: Apera spica-venti, herbicidal effect grade: 5 (Herbicidal ratio of 90% or more (almost completely withered))
[13]
  herbicidal effect on H (Echinochloa crus-galli var. crus-galli), grade 0-5: 5 (Herbicidal ratio of 90% or more (almost completely withered))
[14]
  K: Lolium multiflorum Lam., herbicidal effect (criteria 0-5): 5 (Herbicidal ratio of 90% or more (almost completely withered))
[15]
  F: Digitaria ciliaris, herbicidal effect (criteria 0-5): 5 (Herbicidal ratio of 90% or more (almost completely withered))
[16]
  c: corn, effect on crop (criteria 0-5): 5 (Herbicidal ratio of 90% or more (almost completely withered))
[17]
  L: Apera spica-venti, herbicidal effect (criteria 0-5): 5 (Herbicidal ratio of 90% or more (almost completely withered))

## CCC(C)C(CC1CC(O)=C(c2c(C)cc(C)cc2C)C1=O)=NOC (stereo not shown) [1-066]
[1]
  I: Avena fatua, herbicidal effect grade: 4 (Herbicidal ratio of 70% or higher and lower than 90%)
[2]; [18]
  e (wheat) effect on crop grade: 0 (Herbicidal ratio of 5% or lower (almost no effect))
[3]
  J: Alopecurus myosuroides, herbicidal effect grade: 5 (Herbicidal ratio of 90% or more (almost completely withered))
[4]
  O: Chenopodium album, herbicidal effect grade: 1 (Herbicidal ratio of 5% or higher and lower than 20%)
[5]; [18]
  g (rapeseed) effect on crop grade: 0 (Herbicidal ratio of 5% or lower (almost no effect))
[6]
  b: directly sowed rice plant, effect on crop grade: 5 (Herbicidal ratio of 90% or more (almost completely withered))
[7]; [18]
  d (soybean) effect on crop grade: 0 (Herbicidal ratio of 5% or lower (almost no effect))
[8]; [18]
  P (Stellaria media) herbicidal effect grade: 0 (Herbicidal ratio of 5% or lower (almost no effect))
[9]
  effect on crop b (directly sowed rice plant), grade 0-5: 5 (Herbicidal ratio of 90% or more (almost completely withered))
[10]; [18]
  G (Setaria viridis) herbicidal effect grade: 4 (Herbicidal ratio of 70% or higher and lower than 90%)
[11]
  P: Stellaria media, herbicidal effect grade: 0 (Herbicidal ratio of 5% or lower (almost no effect))
[12]; [18]
  L (Apera spica-venti) herbicidal effect grade: 5 (Herbicidal ratio of 90% or more (almost completely withered))
[13]
  herbicidal effect on H (Echinochloa crus-galli var. crus-galli), grade 0-5: 5 (Herbicidal ratio of 90% or more (almost completely withered))
[14]
  K: Lolium multiflorum Lam., herbicidal effect grade: 5 (Herbicidal ratio of 90% or more (almost completely withered))
[15]
  F: Digitaria ciliaris, herbicidal effect grade: 4 (Herbicidal ratio of 70% or higher and lower than 90%)
[16]
  c: corn, effect on crop grade: 4 (Herbicidal ratio of 70% or higher and lower than 90%)
[17]
  L: Apera spica-venti, herbicidal effect grade: 4 (Herbicidal ratio of 70% or higher and lower than 90%)

## COCC(=O)OC1=C(c2c(C)cc(C)cc2C)C(=O)C(CC(C)=NOC)C1 (stereo not shown) [1-093]
[1]
  I: Avena fatua, herbicidal effect (criteria 0-5): 5 (Herbicidal ratio of 90% or more (almost completely withered))
[2]
  e: wheat, effect grade on crop: 4 (Herbicidal ratio of 70% or higher and lower than 90%)
[3]
  J: Alopecurus myosuroides, herbicidal effect (criteria 0-5): 5 (Herbicidal ratio of 90% or more (almost completely withered))
[4]
  O: Chenopodium album, herbicidal effect (criteria 0-5): 0 (Herbicidal ratio of 5% or lower (almost no effect))
[5]
  g: rapeseed, effect grade on crop: 4 (Herbicidal ratio of 70% or higher and lower than 90%)
[6]
  b: directly sowed rice plant, effect on crop (criteria 0-5): 5 (Herbicidal ratio of 90% or more (almost completely withered))
[7]
  d: soybean, effect grade on crop: 0 (Herbicidal ratio of 5% or lower (almost no effect))
[8]
  P: Stellaria media, herbicidal effect grade: 0 (Herbicidal ratio of 5% or lower (almost no effect))
[9]
  effect on crop b (directly sowed rice plant), grade 0-5: 5 (Herbicidal ratio of 90% or more (almost completely withered))
[10]
  G: Setaria viridis, herbicidal effect grade: 5 (Herbicidal ratio of 90% or more (almost completely withered))
[11]
  P: Stellaria media, herbicidal effect (criteria 0-5): 2 (Herbicidal ratio of 20% or higher and lower than 40%)
[12]
  L: Apera spica-venti, herbicidal effect grade: 5 (Herbicidal ratio of 90% or more (almost completely withered))
[13]
  herbicidal effect on H (Echinochloa crus-galli var. crus-galli), grade 0-5: 5 (Herbicidal ratio of 90% or more (almost completely withered))
[14]
  K: Lolium multiflorum Lam., herbicidal effect (criteria 0-5): 5 (Herbicidal ratio of 90% or more (almost completely withered))
[15]
  F: Digitaria ciliaris, herbicidal effect (criteria 0-5): 5 (Herbicidal ratio of 90% or more (almost completely withered))
[16]
  c: corn, effect on crop (criteria 0-5): 5 (Herbicidal ratio of 90% or more (almost completely withered))
[17]
  L: Apera spica-venti, herbicidal effect (criteria 0-5): 5 (Herbicidal ratio of 90% or more (almost completely withered))

## CON=C(CC1CC(O)=C(c2c(C)cc(Br)cc2C)C1=O)C(C)C (stereo not shown) [9-001]
[1]
  I: Avena fatua, herbicidal effect grade: 5 (Herbicidal ratio of 90% or more (almost completely withered))
[2]; [18]
  Effect on crop grade, e: wheat: 0 (Herbicidal ratio of 5% or lower (almost no effect))
[3]
  J: Alopecurus myosuroides, herbicidal effect grade: 3 (Herbicidal ratio of 40% or higher and lower than 70%)
[4]
  O: Chenopodium album, herbicidal effect grade: 0 (Herbicidal ratio of 5% or lower (almost no effect))
[5]; [18]
  Effect on crop grade, g: rapeseed: 0 (Herbicidal ratio of 5% or lower (almost no effect))
[6]
  b: directly sowed rice plant, effect on crop grade: 3 (Herbicidal ratio of 40% or higher and lower than 70%)
[7]; [18]
  Effect on crop grade, d: soybean: 0 (Herbicidal ratio of 5% or lower (almost no effect))
[8]; [18]
  Herbicidal effect grade, P: Stellaria media: 0 (Herbicidal ratio of 5% or lower (almost no effect))
[9]; Table 24
  b (directly sowed rice plant) effect on crop grade: 5 (Herbicidal ratio of 90% or more (almost completely withered))
[10]; [18]
  Herbicidal effect grade, G: Setaria viridis: 4 (Herbicidal ratio of 70% or higher and lower than 90%)
[11]
  P: Stellaria media, herbicidal effect grade: 0 (Herbicidal ratio of 5% or lower (almost no effect))
[12]; [18]
  Herbicidal effect grade, L: Apera spica-venti: 4 (Herbicidal ratio of 70% or higher and lower than 90%)
[13]; Table 24
  H (Echinochloa crus-galli var. crus-galli) herbicidal effect grade: 5 (Herbicidal ratio of 90% or more (almost completely withered))
[14]
  K: Lolium multiflorum Lam., herbicidal effect grade: 5 (Herbicidal ratio of 90% or more (almost completely withered))
[15]
  F: Digitaria ciliaris, herbicidal effect grade: 4 (Herbicidal ratio of 70% or higher and lower than 90%)
[16]
  c: corn, effect on crop grade: 4 (Herbicidal ratio of 70% or higher and lower than 90%)
[17]
  L: Apera spica-venti, herbicidal effect grade: 3 (Herbicidal ratio of 40% or higher and lower than 70%)

## CON=C(C)CC1CC(OC(=O)C=Cc2ccco2)=C(c2c(C)cc(C)cc2C)C1=O (stereo not shown) [1-091]
[1]
  I: Avena fatua, herbicidal effect (criteria 0-5): 5 (Herbicidal ratio of 90% or more (almost completely withered))
[2]
  e: wheat, effect grade on crop: 4 (Herbicidal ratio of 70% or higher and lower than 90%)
[3]
  J: Alopecurus myosuroides, herbicidal effect (criteria 0-5): 5 (Herbicidal ratio of 90% or more (almost completely withered))
[4]
  O: Chenopodium album, herbicidal effect (criteria 0-5): 0 (Herbicidal ratio of 5% or lower (almost no effect))
[5]
  g: rapeseed, effect grade on crop: 3 (Herbicidal ratio of 40% or higher and lower than 70%)
[6]
  b: directly sowed rice plant, effect on crop (criteria 0-5): 5 (Herbicidal ratio of 90% or more (almost completely withered))
[7]
  d: soybean, effect grade on crop: 0 (Herbicidal ratio of 5% or lower (almost no effect))
[8]
  P: Stellaria media, herbicidal effect grade: 0 (Herbicidal ratio of 5% or lower (almost no effect))
[9]
  effect on crop b (directly sowed rice plant), grade 0-5: 5 (Herbicidal ratio of 90% or more (almost completely withered))
[10]
  G: Setaria viridis, herbicidal effect grade: 5 (Herbicidal ratio of 90% or more (almost completely withered))
[11]
  P: Stellaria media, herbicidal effect (criteria 0-5): 0 (Herbicidal ratio of 5% or lower (almost no effect))
[12]
  L: Apera spica-venti, herbicidal effect grade: 5 (Herbicidal ratio of 90% or more (almost completely withered))
[13]
  herbicidal effect on H (Echinochloa crus-galli var. crus-galli), grade 0-5: 5 (Herbicidal ratio of 90% or more (almost completely withered))
[14]
  K: Lolium multiflorum Lam., herbicidal effect (criteria 0-5): 5 (Herbicidal ratio of 90% or more (almost completely withered))
[15]
  F: Digitaria ciliaris, herbicidal effect (criteria 0-5): 5 (Herbicidal ratio of 90% or more (almost completely withered))
[16]
  c: corn, effect on crop (criteria 0-5): 5 (Herbicidal ratio of 90% or more (almost completely withered))
[17]
  L: Apera spica-venti, herbicidal effect (criteria 0-5): 5 (Herbicidal ratio of 90% or more (almost completely withered))
